Assay results published in PubChem BioAssay (NCI).
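Test compounds were applied to cells in 96-well plates for 48 hours at 5 doses. The concentration for 50% growth inhibition is given as GI50. TGI is the concentration that stops growth completely.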

Tests used:
Experiment in all cases: inhibition of tumour cell growth, NCI panel, 48 h
HL-60(TB) leukemia = test system: HL-60(TB) leukemia
CAKI-1 renal = test system: CAKI-1 renal
SF-268 CNS = test system: SF-268 CNS
MALME-3M melanoma = test system: MALME-3M melanoma
BT-549 breast = test system: BT-549 breast
SK-MEL-2 melanoma = test system: SK-MEL-2 melanoma
SN12C renal = test system: SN12C renal
SK-MEL-5 melanoma = test system: SK-MEL-5 melanoma
NCI-H522 lung = test system: NCI-H522 lung
UO-31 renal = test system: UO-31 renal
DU-145 prostate = test system: DU-145 prostate
HOP-92 NSCLC = test system: HOP-92 NSCLC
MOLT-4 leukemia = test system: MOLT-4 leukemia
SNB-19 CNS = test system: SNB-19 CNS
HCC-2998 colon = test system: HCC-2998 colon
MDA-MB-231 breast = test system: MDA-MB-231 breast
U251 CNS = test system: U251 CNS
HS 578T breast = test system: HS 578T breast
CCRF-CEM leukemia = test system: CCRF-CEM leukemia
SR leukemia = test system: SR leukemia
OVCAR-8 ovarian = test system: OVCAR-8 ovarian
COLO 205 colon = test system: COLO 205 colon
SF-539 CNS = test system: SF-539 CNS
ACHN renal = test system: ACHN renal
SNB-75 CNS = test system: SNB-75 CNS
NCI-H226 lung = test system: NCI-H226 lung
786-0 renal = test system: 786-0 renal
UACC-257 melanoma = test system: UACC-257 melanoma
TK-10 renal = test system: TK-10 renal
MDA-MB-435 = test system: MDA-MB-435
HCT-15 colon = test system: HCT-15 colon
HCT-116 colon = test system: HCT-116 colon
SK-MEL-28 melanoma = test system: SK-MEL-28 melanoma
SK-OV-3 ovarian = test system: SK-OV-3 ovarian
A498 renal = test system: A498 renal
LOX IMVI melanoma = test system: LOX IMVI melanoma
OVCAR-3 ovarian = test system: OVCAR-3 ovarian
KM12 colon = test system: KM12 colon
RPMI-8226 leukemia = test system: RPMI-8226 leukemia
PC-3 prostate = test system: PC-3 prostate
RXF 393 renal = test system: RXF 393 renal
A549 NSCLC = test system: A549 NSCLC
SW-620 colon = test system: SW-620 colon
SF-295 CNS = test system: SF-295 CNS
MCF7 breast = test system: MCF7 breast
NCI/ADR-RES ovarian = test system: NCI/ADR-RES ovarian
K-562 leukemia = test system: K-562 leukemia
HT29 colon = test system: HT29 colon
NCI-H460 lung = test system: NCI-H460 lung
NCI-H23 lung = test system: NCI-H23 lung
M14 melanoma = test system: M14 melanoma
T-47D breast = test system: T-47D breast
OVCAR-5 ovarian = test system: OVCAR-5 ovarian
UACC-62 melanoma = test system: UACC-62 melanoma
OVCAR-4 ovarian = test system: OVCAR-4 ovarian

Compound: Nc1c(C(=O)Nc2cccc(C(F)(F)F)c2)sc2nc3c(cc12)CCCCC3
- GI50 (HL-60(TB) leukemia): 15.6 µM
- TGI (HL-60(TB) leukemia): > 100 µM
- GI50 (CAKI-1 renal): 2.08 µM
- TGI (CAKI-1 renal): 10.1 µM
- GI50 (SF-268 CNS): 2.99 µM
- TGI (SF-268 CNS): 16.2 µM
- GI50 (MALME-3M melanoma): 3 µM
- TGI (MALME-3M melanoma): 9.49 µM
- GI50 (BT-549 breast): 1.7 µM
- TGI (BT-549 breast): 6.33 µM
- GI50 (SK-MEL-2 melanoma): 3.16 µM
- TGI (SK-MEL-2 melanoma): 19.3 µM
- GI50 (SN12C renal): 3.41 µM
- TGI (SN12C renal): 19.3 µM
- GI50 (SK-MEL-5 melanoma): 1.18 µM
- TGI (SK-MEL-5 melanoma): 12 µM
- GI50 (NCI-H522 lung): 2.52 µM
- TGI (NCI-H522 lung): 17.7 µM
- GI50 (UO-31 renal): 1.64 µM
- TGI (UO-31 renal): 4.88 µM
- GI50 (DU-145 prostate): 4.81 µM
- TGI (DU-145 prostate): 28.4 µM
- GI50 (HOP-92 NSCLC): 1.82 µM
- TGI (HOP-92 NSCLC): 6.23 µM
- GI50 (MOLT-4 leukemia): 15 µM
- TGI (MOLT-4 leukemia): 51.6 µM
- GI50 (SNB-19 CNS): 4.24 µM
- TGI (SNB-19 CNS): 19.8 µM
- GI50 (HCC-2998 colon): 31 µM
- TGI (HCC-2998 colon): > 100 µM
- GI50 (MDA-MB-231 breast): 4.4 µM
- TGI (MDA-MB-231 breast): 22.7 µM
- GI50 (U251 CNS): 2.2 µM
- TGI (U251 CNS): 7.98 µM
- GI50 (HS 578T breast): 3.8 µM
- TGI (HS 578T breast): 30.4 µM
- GI50 (CCRF-CEM leukemia): 5.56 µM
- TGI (CCRF-CEM leukemia): > 100 µM
- GI50 (SR leukemia): 4.03 µM
- TGI (SR leukemia): 21.7 µM
- GI50 (OVCAR-8 ovarian): 3.49 µM
- TGI (OVCAR-8 ovarian): 19.8 µM
- GI50 (COLO 205 colon): 11.7 µM
- TGI (COLO 205 colon): > 100 µM
- GI50 (SF-539 CNS): 1.94 µM
- TGI (SF-539 CNS): 4.48 µM
- GI50 (ACHN renal): 1.56 µM
- TGI (ACHN renal): 3.73 µM
- GI50 (SNB-75 CNS): 1.74 µM
- TGI (SNB-75 CNS): 3.93 µM
- GI50 (NCI-H226 lung): 1.57 µM
- TGI (NCI-H226 lung): 16 µM
- GI50 (786-0 renal): 1.58 µM
- TGI (786-0 renal): 3.13 µM
- GI50 (UACC-257 melanoma): 3.64 µM
- TGI (UACC-257 melanoma): 37.4 µM
- GI50 (TK-10 renal): 1.83 µM
- TGI (TK-10 renal): 4.47 µM
- GI50 (MDA-MB-435): 2.53 µM
- TGI (MDA-MB-435): 63.1 µM
- GI50 (HCT-15 colon): 10.7 µM
- TGI (HCT-15 colon): > 100 µM
- GI50 (HCT-116 colon): 1.62 µM
- TGI (HCT-116 colon): 4.18 µM
- GI50 (SK-MEL-28 melanoma): 3.73 µM
- TGI (SK-MEL-28 melanoma): 23.6 µM
- GI50 (SK-OV-3 ovarian): 1.85 µM
- TGI (SK-OV-3 ovarian): 4.36 µM
- GI50 (A498 renal): 1.53 µM
- TGI (A498 renal): 7.08 µM
- GI50 (LOX IMVI melanoma): 3.59 µM
- TGI (LOX IMVI melanoma): 58 µM
- GI50 (OVCAR-3 ovarian): 2.84 µM
- TGI (OVCAR-3 ovarian): 11.5 µM
- GI50 (KM12 colon): 5.33 µM
- TGI (KM12 colon): > 100 µM
- GI50 (RPMI-8226 leukemia): 4.32 µM
- TGI (RPMI-8226 leukemia): 35.5 µM
- GI50 (PC-3 prostate): 3.21 µM
- TGI (PC-3 prostate): 34.2 µM
- GI50 (RXF 393 renal): 1.84 µM
- TGI (RXF 393 renal): 4.86 µM
- GI50 (A549 NSCLC): 2.25 µM
- TGI (A549 NSCLC): 11 µM
- GI50 (SW-620 colon): 6.42 µM
- TGI (SW-620 colon): > 100 µM
- GI50 (SF-295 CNS): 2.2 µM
- TGI (SF-295 CNS): 12.2 µM
- GI50 (MCF7 breast): 2.35 µM
- TGI (MCF7 breast): 13.6 µM
- GI50 (NCI/ADR-RES ovarian): 3.17 µM
- TGI (NCI/ADR-RES ovarian): 22.9 µM
- GI50 (K-562 leukemia): 5.42 µM
- TGI (K-562 leukemia): 29.7 µM
- GI50 (HT29 colon): 7.06 µM
- TGI (HT29 colon): > 100 µM
- GI50 (NCI-H460 lung): 2.61 µM
- TGI (NCI-H460 lung): 11.4 µM
- GI50 (NCI-H23 lung): 1.72 µM
- TGI (NCI-H23 lung): 10.9 µM
- GI50 (M14 melanoma): 4.15 µM
- TGI (M14 melanoma): 41.5 µM
- GI50 (T-47D breast): 1.55 µM
- TGI (T-47D breast): 8.31 µM
- GI50 (OVCAR-5 ovarian): 3.43 µM
- TGI (OVCAR-5 ovarian): 17.3 µM
- GI50 (UACC-62 melanoma): 2.69 µM
- TGI (UACC-62 melanoma): 16.7 µM
- GI50 (OVCAR-4 ovarian): 1.21 µM
- TGI (OVCAR-4 ovarian): 3.9 µM
